The values below come from PMC9668655 (Computational and Structural Biotechnology Journal, 2022).

The target in assay [1] is RSL-MOA. The format is binding, Ralstonia nicotianae; Marasmius oreades. The conditions noted are these: 20 mM Tris/HCl pH 7.5, 100 mM NaCl, 25 °C, one-site model, titrated into the RSL-MOA/Galα1-3Gal complex.
In assay [2] the target is RSL (Ralstonia pseudosolanacearum, UniProt Q8XXK6). The following applies: 250 µM; 250 μM ligand, 25 μM protein; absolute Tm1, not a shift (ligand-free reference in the 2nd table, row 4); 20 mM Tris/HCl pH 7.5, 100 mM NaCl.
Assay [3] deals with RSL-MOA. The format is binding, Ralstonia nicotianae; Marasmius oreades. The conditions noted are these: 50 nM RSL-MOA pre-incubated with fucose; 10 mM HEPES pH 7.5, 100 mM NaCl, 0.05 % Tween 20, 25 °C; RSL site; competitive with immobilised fucose.

With `CO[C@@H]1O[C@@H](C)[C@@H](O)[C@@H](O)[C@@H]1O` [α-methyl fucoside], the dissociation constant (Kd) in assay [1] was 400 nM. Moreover, in assay [2], the “Tm1 (°C)” value is 101.6 °C. In turn, `C[C@@H]1OC(O)[C@@H](O)[C@H](O)[C@@H]1O` (stereo partly drawn) [L-fucose] gave an IC50 in assay [3] of 7.8 µM.

As a reminder, the Kd is the free concentration of one partner at which half of the binding sites on the other are occupied at equilibrium, for simple one-to-one binding. Read a low Kd as tighter binding. One may read the IC50 as the concentration that inhibits the measured activity by half.
